Measured values taken from patent publication EP1261344B1, “USE OF INDOLOQUINOXALINES FOR THE TREATMENT OF MULTIPLE SKLEROSIS” (OxyPharma AB, priority 2000, dated 2001).

Experiments:
[1] = Acute toxicity in rat; settings: in vivo
[2] = system: EAE (experimental autoimmune encephalomyelitis) model; experiment: EAE (experimental autoimmune encephalomyelitis) rat model, clinical score; type: in vivo, Lewis rats; settings: for onset is delayed / recovery starts earlier: Figure 2, versus control
[3] = Acute toxicity in rabbit, cutaneous; settings: in vivo, topical or ocular, read-out: NOEL (No Observable Effect Level)
[4] = system: mice; experiment: Chronic toxicity in mice, up to 270 days; type: in vivo; settings: tested up to 270 days on mice

Cc1cc2nc3c4ccccc4n(CCN(C)C)c3nc2cc1C [B-220]
NOAEL ([1]; intravenous, read-out: NOEL (No Observable Effect Level)): 12.5 mg/kg | LD50 ([1]; iv): > 100 mg/kg | LD50 ([1]; po): > 800 mg/kg | reduces the CNS symptoms ([2]; Figure 1, 6 mg/animal daily, clinical score scale 0-5, versus negative control): 2/3 | onset is delayed ([2]; 6 mg/animal): ~2 days | recovery starts earlier ([2]; 6 mg/animal): ~2 days | onset is delayed ([2]; 12 mg/animal): ~4 days | recovery starts earlier ([2]; 12 mg/animal): ~3 days | NOAEL [3]: 200 mg/kg | chronic toxicity [4]: has not induced toxicity
